Assay results taken from patent publication US9580451B2, “Sulfonic esters of metal oxides and methods of their use” (California Institute of Technology, priority 2013, dated 2017).

Assay: Relative fluorescence quantum yield measurement
Type: physicochemical
Conditions: degassed toluene, tetraphenylporphyrin as standard
Description: The Φem measurements were performed using degassed toluene solutions of 1,1-Al, 1-Ga, and tetraphenylporphyrin (as a standard). Samples were excited at λex=355 nm and the emission was observed from λem=500-800 nm. The standard tetraphenylporphyrin was excited at λex=514 nm and the emission was observed from λem=500-800 nm. Φem for tetraphenylporphyrin is 0.11.3 All relative fluorescence quantum yields were calculated based on the corresponding fluorescence spectra of the samples and the standard according to the equation: […]
where Φem(s) and Φem(x) are the relative fluorescence quantum yield of the standard and sample, respectively; As and Ax are the absorbance at the excitation wavelength for the standard and sample, respectively; Fs and Fx are the area under the corrected emission curve for the standard and sample, respectively; and ηs and ηx are the refractive index of the solvent used for the standard and sample, respectively.

With `O=S(=O)(Cl)C1=Cc2nc1c(-c1c(F)c(F)c(F)c(F)c1F)c1ccc([nH]1)c(-c1c(F)c(F)c(F)c(F)c1F)c1ccc([nH]1)c(-c1c(F)c(F)c(F)c(F)c1F)c1cc(S(=O)(=O)Cl)c2[nH]1` [compound 1, 2,17-bischlorosulfonato-5,10,15-tris(pentafluorophenyl)corrole] the “φem, relative emission quantum yield” value was 0.094.
